Patent publication US20260234107A1, “TRYPTAMINES AND METHODS OF TREATING MOOD DISORDERS” (priority 2022, published 2026)
Like-named read-outs stand apart in the source and are kept apart here.

Columns and labels:
[1] = system: monoamine oxidase A and B (MAO-A and MAO-B); assay: Stability in the presence of monoamine oxidases (human liver mitochondria preparation); parameters: half-life / microsomal CLint: dose or concentration left out as unconfirmed; conditions: for Remaining (t = 60 min) / half-life / microsomal CLint: human liver mitochondria; for half-life / microsomal CLint: human, pH 7.4; for stability in the presence of MAO (in words): human liver mitochondria preparation
Method: Liver Mitochondria Incubations. Human liver mitochondria (Xenotech H0610.M) were used.

5-HT2B = molecular target: T1, 5-HT2B (Homo sapiens, UniProt P41595); assay: FLIPR Ca2+ flux agonist assay at 5-HT2B; assay type: cell-based; conditions: for 5-HT2B % Act @ Max Dose: Ca2+ flux, HEK293, max dose
T1 construct: host or cells: HEK293
T1 sequence (P41595 whole entry, species assumed): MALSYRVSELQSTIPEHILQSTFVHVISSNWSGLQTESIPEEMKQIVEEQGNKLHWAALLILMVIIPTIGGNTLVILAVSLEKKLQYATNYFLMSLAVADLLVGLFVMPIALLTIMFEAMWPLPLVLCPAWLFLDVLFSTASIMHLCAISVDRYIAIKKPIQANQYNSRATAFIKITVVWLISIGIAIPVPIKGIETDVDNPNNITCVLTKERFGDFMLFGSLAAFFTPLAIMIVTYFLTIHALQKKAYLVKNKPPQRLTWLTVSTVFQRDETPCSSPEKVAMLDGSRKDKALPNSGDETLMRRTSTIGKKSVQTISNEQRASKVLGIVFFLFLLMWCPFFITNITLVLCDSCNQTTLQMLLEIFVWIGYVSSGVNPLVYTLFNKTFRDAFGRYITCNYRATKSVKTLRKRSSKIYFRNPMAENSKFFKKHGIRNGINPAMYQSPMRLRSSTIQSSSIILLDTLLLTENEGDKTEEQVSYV
Method: (§1) A solution of 250 mM probenecid in 1 mL FLIPR assay buffer was prepared fresh. This was combined with a fluorescent dye (Fluo-4 Direct™) to make a final assay concentration of 2.5 mM. […] The fluorescent dye was then added to the assay plate along with assay buffer to a final volume of 40 μL. The cell plate was incubated for 50 min at 37° C. and 5% CO2 and placed into the FLIPR Tetra along with the compound plate. 10 μL of references and compounds were then transferred from the compound plate into the cell plate and the fluorescent signal was read.

5-HT1A = molecular target: T2, 5-HT1A (Homo sapiens, UniProt P08908); assay: FLIPR Ca2+ flux agonist assay at 5-HT1A; assay type: cell-based; conditions: for 5-HT1A % Act @ Max Dose: Ca2+ flux, CHO cells
T2 construct: host or cells: CHO cells
T2 sequence (P08908 1-422): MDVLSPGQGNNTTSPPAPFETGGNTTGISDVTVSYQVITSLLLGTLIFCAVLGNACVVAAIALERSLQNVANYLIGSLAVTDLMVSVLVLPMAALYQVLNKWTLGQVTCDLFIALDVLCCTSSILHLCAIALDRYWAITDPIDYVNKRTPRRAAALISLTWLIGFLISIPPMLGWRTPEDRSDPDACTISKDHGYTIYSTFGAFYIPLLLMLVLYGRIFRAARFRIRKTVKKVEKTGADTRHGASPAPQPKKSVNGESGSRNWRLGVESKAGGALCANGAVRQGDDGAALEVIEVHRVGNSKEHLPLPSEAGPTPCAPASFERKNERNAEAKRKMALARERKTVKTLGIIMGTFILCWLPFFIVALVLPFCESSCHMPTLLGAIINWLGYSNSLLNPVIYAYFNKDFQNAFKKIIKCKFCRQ
Method: as §1

[2] = Stability in mouse brain homogenate; assay type: in vitro ADME, male CD-1 mice; conditions: mouse brain homogenate, 1 μM, 37° C.; for half-life at 1 µM: male, CD-1
Method: Disclosed compounds were tested for stability in mouse brain homogenate (Table 7). There was widely variable stability among the test compounds under the conditions of the experiment.
(§2) Mouse Brain Homogenate Stability. Frozen mouse brain homogenate (pooled from male CD-1 mice, BioreclamationIVT, MSE00BRAINMZA) was thawed in a water bath at 37° C. immediately prior to use. Positive controls and test compounds (final concentration in incubation medium=1 μM for test compounds and 2 μM for controls, all with 2% DMSO) were incubated in duplicate for each time point (0, 10, 30, 60, and 120 min) in the mouse brain homogenate at a total reaction volume of 100 μL at 37° C. At the end of each incubation period, reactions were immediately quenched with 400 μL of acetonitrile containing internal standard (200 ng/mL tolbutamine and 200 ng/mL labetalol) and mixed thoroughly. Plates were then sealed, shaken for 20 min, and centrifuged at 4,000 rpm and 4° C. for 20 min. Aliquots of 50 μL of each supernatant were diluted into 100 μL of water and the mixtures were then shaken again for 10 min.

[3] = Stability in rat brain homogenate; assay type: in vitro ADME, male Sprague Dawley rats; conditions: rat brain homogenate, 1 μM, 37° C.; for half-life at 1 µM: male, Sprague Dawley
Method: Disclosed compounds were tested for stability in rat brain homogenate (Table 8). There was widely variable stability among the test compounds under the conditions of the experiment.
as §2, with “Rat” for “Mouse”, “rat” for “mouse”, “Sprague Dawley rats,” for “CD-1 mice,”, “RAT00BRAINMZA)” for “MSE00BRAINMZA)”

5-HT2A = 5-HT2A (Homo sapiens, UniProt P28223); assay: FLIPR Ca2+ flux agonist assay at 5-HT2A; assay type: cell-based; parameters: host or cells: HEK293; conditions: for 5-HT2A % Act @ Max Dose: HEK293, max dose
5-HT2A, sequence (P28223 whole entry): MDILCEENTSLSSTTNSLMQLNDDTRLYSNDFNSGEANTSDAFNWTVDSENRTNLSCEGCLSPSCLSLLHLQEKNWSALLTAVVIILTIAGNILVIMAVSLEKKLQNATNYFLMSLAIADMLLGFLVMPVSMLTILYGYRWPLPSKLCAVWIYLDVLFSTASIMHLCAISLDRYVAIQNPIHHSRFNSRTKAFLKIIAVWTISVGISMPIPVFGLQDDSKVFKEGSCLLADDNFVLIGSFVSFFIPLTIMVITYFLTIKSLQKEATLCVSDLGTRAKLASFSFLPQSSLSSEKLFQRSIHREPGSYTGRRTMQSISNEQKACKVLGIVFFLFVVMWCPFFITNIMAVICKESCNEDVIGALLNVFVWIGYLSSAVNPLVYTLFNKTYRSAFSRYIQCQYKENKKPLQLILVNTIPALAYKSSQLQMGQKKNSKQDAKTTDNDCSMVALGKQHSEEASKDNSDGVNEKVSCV
Method: as §1

[4] = Metabolic stability in human liver microsomes (HLM); parameters: microsomal CLint / half-life: dose or concentration left out as unconfirmed; conditions: both, human, pooled human liver microsomes, pH 7.4
[5] = Ca2+ flux, HEK293, read-out: 5-HT2A EC50

Structure (SMILES)	Remaining (t = 60 min) [1] [%]	half-life [1] [min]	microsomal CLint [1] [µL/min/mg]	EC50 (5-HT2B) [nM]	5-HT2B % Act @ Max Dose (5-HT2B) [%]	EC50 (5-HT1A) [nM]	5-HT1A % Act @ Max Dose (5-HT1A) [%]	half-life at 1 µM [2] [min]	% Compound Remaining (after 120 min) [2] [%]	half-life at 1 µM [3] [min]	% Compound Remaining (after 120 min) [3] [%]	EC50 (5-HT2A) [nM]	5-HT2A % Act @ Max Dose (5-HT2A; Ca2+ flux) [%]	half-life [4] [min]	microsomal CLint [4] [µL/min/mg]	EC50 (5-HT2A; [5]) [nM]	stability in the presence of MAO (in words) [1]
NCCc1c[nH]c2cccc(O)c12 [Compound 1, 3-(2-aminoethyl)-1H-indol-4-ol]	51.1	70.5	32.8	151	83.98	92600	49.9	12.6	0.0	10	0.0	33.4	99.2	34.3	40.4	–	–
CCCNCCc1c[nH]c2ccc(F)c(O)c12 [Compound 36, 5-fluoro-3-(2-(propylamino)ethyl)-1H-indol-4-ol]	0.9	8.5	272	26.2	44.90	> 100000	15.31	108	46.2	31	7.1	12.1	71.78	49.9	27.8	–	–
NCCc1c[nH]c2ccc(F)c(O)c12 [Compound 30, 3-(2-aminoethyl)-5-fluoro-1H-indol-4-ol]	0.0	6.5	356	4.62	95.46	5220	73.4	6.4	0	3.9	0.1	–	–	9.3	149	4.06	–
CNCCc1c[nH]c2cc(F)cc(O)c12 [Compound 33, 6-fluoro-3-(2-(methylamino)ethyl)-1H-indol-4-ol]	14.3	20.2	114	28.5	31.76	> 100000	3.51	16	0.6	9.1	0.4	–	–	10.1	138	5.8	–
NCCc1c[nH]c2c(F)ccc(O)c12 [Compound 32, 3-(2-aminoethyl)-7-fluoro-1H-indol-4-ol]	24.0	28.4	81.4	30.3	66.55	> 100000	38.64	29	4.8	9.5	0	–	–	16	86.5	7.3	intermediate stability
CCNCCc1c[nH]c2ccc(Cl)c(O)c12 [Compound 38, 5-chloro-3-(2-(ethylamino)ethyl)-1H-indol-4-ol]	22.6	26.1	88.6	42.4	43.30	1840	77.96	17.5	0.9	9.2	0	10.5	103.70	13.2	105	–	intermediate stability
NCCc1c[nH]c2cc(F)cc(O)c12 [Compound 31, 3-(2-aminoethyl)-6-fluoro-1H-indol-4-ol]	24.6	30.1	76.8	5.07	99.12	12500	18.3	20.3	1.6	11.4	0	–	–	16.9	81.8	6.36	intermediate stability
CCNCCc1c[nH]c2ccc(C)c(O)c12 [Compound 37, 3-(2-(ethylamino)ethyl)-5-methyl-1H-indol-4-ol]	65.1	88.7	26.1	274	16.28	6950	64.6	69.9	31.3	14.1	0.2	56.5	91.0	86.8	16	–	–
